Assay results from patent US9434711B2 (Janssen Pharmaceutica, NV, priority 2007, dated 2016).

Molecular target: canine TRPM8 (Canis lupus familiaris, UniProt Q1A7N1)
Experiment: In Vitro Canine TRPM8 Functional Assay (Ca2+ fluorescence, icilin activation)
Assay type: cell-based
Conditions: for IC50: HEK293 cells stably expressing canine TRPM8, icilin activation, eight-point dose-response, read-out: IC50; for inhibition at 0.2 µM: compound at 0.2 μM, read-out: % Inh @ 0.2; for inhibition at 0.2 µM / inhibition at 0.5 µM: canine TRPM8, icilin activation; for inhibition at 0.5 µM: compound at 0.5 μM, read-out: % Inh @ 0.5
Method in brief: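 Eight-point dose-response curves in quadruplicate gave EC50 or IC50 values from a Ca2+-sensitive dye assay in HEK293 cells stably carrying canine TRPM8. Icilin, dosed near its 80% maximal level, followed a 5 min compound exposure.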

canine TRPM8, sequence (Q1A7N1 1-1104): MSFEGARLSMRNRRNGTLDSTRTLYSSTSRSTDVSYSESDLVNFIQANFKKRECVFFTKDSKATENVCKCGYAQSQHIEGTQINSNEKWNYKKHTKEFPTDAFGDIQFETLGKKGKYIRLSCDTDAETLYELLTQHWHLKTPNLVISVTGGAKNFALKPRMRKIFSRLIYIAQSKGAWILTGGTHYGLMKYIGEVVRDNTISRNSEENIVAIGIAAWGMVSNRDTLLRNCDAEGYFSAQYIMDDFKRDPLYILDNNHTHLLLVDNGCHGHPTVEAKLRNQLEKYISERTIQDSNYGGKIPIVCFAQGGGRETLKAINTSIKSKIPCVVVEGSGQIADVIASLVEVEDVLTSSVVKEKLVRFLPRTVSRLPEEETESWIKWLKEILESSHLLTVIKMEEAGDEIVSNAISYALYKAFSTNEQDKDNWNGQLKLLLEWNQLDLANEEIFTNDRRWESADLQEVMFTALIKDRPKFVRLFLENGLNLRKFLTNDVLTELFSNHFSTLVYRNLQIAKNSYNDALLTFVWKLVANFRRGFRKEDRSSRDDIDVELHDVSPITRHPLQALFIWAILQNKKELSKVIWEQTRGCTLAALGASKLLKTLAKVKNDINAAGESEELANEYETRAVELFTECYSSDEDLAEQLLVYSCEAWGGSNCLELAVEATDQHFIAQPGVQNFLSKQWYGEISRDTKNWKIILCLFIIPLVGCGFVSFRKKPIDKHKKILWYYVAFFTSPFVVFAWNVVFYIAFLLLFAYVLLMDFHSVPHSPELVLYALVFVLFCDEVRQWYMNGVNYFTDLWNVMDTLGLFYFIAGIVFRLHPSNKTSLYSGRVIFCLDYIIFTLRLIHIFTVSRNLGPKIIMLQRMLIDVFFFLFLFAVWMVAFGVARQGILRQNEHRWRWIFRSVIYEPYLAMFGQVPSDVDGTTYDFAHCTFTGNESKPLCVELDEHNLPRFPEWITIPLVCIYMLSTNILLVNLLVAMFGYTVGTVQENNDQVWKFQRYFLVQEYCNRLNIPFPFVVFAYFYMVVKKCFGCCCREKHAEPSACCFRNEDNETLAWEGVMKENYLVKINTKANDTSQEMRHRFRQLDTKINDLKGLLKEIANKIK

O=S(=O)(c1ccccc1)N(Cc1ccc(F)c(C(F)(F)F)c1)c1sc2ccccc2c1CO [Compound 214, N-(4-Fluoro-3-trifluoromethyl-benzyl)-N-(3-hydroxymethyl-benzo[b]thiophen-2-yl)-benzenesulfonamide]
IC50: 2.1 nM
inhibition at 0.2 µM: 97%

CS(=O)(=O)N(Cc1ccc(F)c(C(F)(F)F)c1)c1sc2ccccc2c1CO [Compound 215, N-(4-Fluoro-3-trifluoromethyl-benzyl)-N-(3-hydroxymethyl-benzo[b]thiophen-2-yl)-methanesulfonamide]
IC50: 6 nM
inhibition at 0.2 µM: 101%

CS(=O)(=O)N(Cc1ccc(F)c(F)c1)c1sc2ccccc2c1CO [Compound 216, N-(3,4-Difluoro-benzyl)-N-(3-hydroxymethyl-benzo[b]thiophen-2-yl)-methanesulfonamide]
IC50: 14 nM
inhibition at 0.2 µM: 100%

CCS(=O)(=O)N(Cc1ccc(F)c(C(F)(F)F)c1)c1sc2ccccc2c1CO [Compound 217, N-(4-Fluoro-3-trifluoromethyl-benzyl)-N-(3-hydroxymethyl-benzo[b]thiophen-2-yl)-ethanesulfonamide]
IC50: 3 nM
inhibition at 0.2 µM: 88%

O=C(O)c1ccc(S(=O)(=O)N(Cc2ccc(F)c(C(F)(F)F)c2)c2sc3ccccc3c2CO)cc1 [Compound 218, N-(3-Hydroxymethyl-benzo[b]thiophen-2-yl)-N-(4-fluoro-3-trifluoromethyl-benzyl)-4-carboxy-benzenesulfonamide]
IC50: 1 nM
inhibition at 0.2 µM: 90%

CCS(=O)(=O)N(Cc1ccc(F)c(F)c1)c1sc2ccccc2c1CO [Compound 219, N-(3,4-Difluoro-benzyl)-N-(3-hydroxymethyl-benzo[b]thiophen-2-yl)-ethanesulfonamide]
IC50: 7.8 nM
inhibition at 0.2 µM: 101%

CCS(=O)(=O)N(Cc1ccc(F)c(C(F)(F)F)c1)c1sc2ccccc2c1C(C)O (stereo not shown) [Compound 220, N-(4-Fluoro-3-trifluoromethyl-benzyl)-N-[3-(1-hydroxy-ethyl)-benzo[b]thiophen-2-yl]-ethanesulfonamide]
IC50: 1.2 nM
inhibition at 0.2 µM: 98%
inhibition at 0.5 µM: 99%

CCS(=O)(=O)N(Cc1ccc(F)c(F)c1)c1sc2ccccc2c1C(C)O (stereo not shown) [Compound 221, N-(3,4-Difluoro-benzyl)-N-[3-(1-hydroxy-ethyl)-benzo[b]thiophen-2-yl]-ethanesulfonamide]
IC50: 5 nM
inhibition at 0.2 µM: 92%

CC(O)c1c(N(Cc2ccc(F)c(F)c2)S(=O)(=O)c2ccccc2)sc2ccccc12 (stereo not shown) [Compound 222, N-(3,4-Difluoro-benzyl)-N-[3-(1-hydroxy-ethyl)-benzo[b]thiophen-2-yl]-benzenesulfonamide]
IC50: 1.7 nM
inhibition at 0.2 µM: 95%

CC(O)c1c(N(Cc2ccc(F)c(C(F)(F)F)c2)S(=O)(=O)c2ccccc2)sc2ccccc12 (stereo not shown) [Compound 223, N-(4-Fluoro-3-trifluoromethyl-benzyl)-N-[3-(1-hydroxy-ethyl)-benzo[b]thiophen-2-yl]-benzenesulfonamide]
IC50: 2.3 nM
inhibition at 0.2 µM: 96%

CC(O)c1c(N(Cc2ccc(F)c(C(F)(F)F)c2)S(C)(=O)=O)sc2ccccc12 (stereo not shown) [Compound 224, N-(4-Fluoro-3-trifluoromethyl-benzyl)-N-[3-(1-hydroxy-ethyl)-benzo[b]thiophen-2-yl]-methanesulfonamide]
IC50: 1 nM
inhibition at 0.2 µM: 100%

CC(O)c1c(N(Cc2ccc(F)c(F)c2)S(C)(=O)=O)sc2ccccc12 (stereo not shown) [Compound 225, N-(3,4-Difluoro-benzyl)-N-[3-(1-hydroxy-ethyl)-benzo[b]thiophen-2-yl]-methanesulfonamide]
IC50: 4 nM
inhibition at 0.2 µM: 98%

CCS(=O)(=O)N(Cc1ccc(F)c(F)c1)c1sc2ccccc2c1C(C)(C)O [Compound 226, N-(3,4-Difluoro-benzyl)-N-[3-(1-hydroxy-1-methyl-ethyl)-benzo[b]thiophen-2-yl]-ethanesulfonamide]
IC50: 2 nM
inhibition at 0.2 µM: 99%

CCS(=O)(=O)N(Cc1ccc(F)c(C(F)(F)F)c1)c1sc2ccccc2c1C(C)(C)O [Compound 227, N-(4-Fluoro-3-trifluoromethyl-benzyl)-N-[3-(1-hydroxy-1-methyl-ethyl)-benzo[b]thiophen-2-yl]-ethanesulfonamide]
IC50: 0.6 nM
inhibition at 0.2 µM: 101%

CC(=O)c1c(N(Cc2ccc(F)c(C(F)(F)F)c2)S(C)(=O)=O)sc2ccccc12 [Compound 228, N-(3-Acetyl-benzo[b]thiophen-2-yl)-N-(4-fluoro-3-trifluoromethyl-benzyl)-methanesulfonamide]
IC50: 6 nM
inhibition at 0.2 µM: 101%

CC(=O)c1c(N(Cc2ccc(F)c(F)c2)S(C)(=O)=O)sc2ccccc12 [Compound 229, N-(3-Acetyl-benzo[b]thiophen-2-yl)-N-(3,4-difluoro-benzyl)-methanesulfonamide]
IC50: 21 nM
inhibition at 0.2 µM: 99%

CCOC(=O)CCCCCN(c1sc2ccccc2c1Br)S(=O)(=O)c1ccccc1 [Compound 230, N-(3-Bromo-benzo[b]thiophen-2-yl)-N-(5-carboethoxy-pentyl)benzenesulfonamide]
IC50: 12.9 nM
inhibition at 0.2 µM: 100%

CCCCN(c1sc2ccccc2c1Br)S(=O)(=O)c1ccccc1 [Compound 231, N-(3-Bromo-benzo[b]thiophen-2-yl)-N-(butyl)-benzenesulfonamide]
IC50: 29 nM
inhibition at 0.5 µM: 95%

O=S(=O)(c1ccccc1)N(CC1CCCCC1)c1sc2ccccc2c1Br [Compound 232, N-(3-Bromo-benzo[b]thiophen-2-yl)-N-(cyclohexylmethyl)-benzenesulfonamide]
IC50: 74 nM
inhibition at 0.5 µM: 94%

O=S(=O)(c1ccccc1)N(CCc1ccccc1)c1sc2ccccc2c1Br [Compound 233, N-(3-Bromo-benzo[b]thiophen-2-yl)-N-(phenethyl)-benzenesulfonamide]
IC50: 22 nM
inhibition at 0.5 µM: 93%

CC(C)(C)OCCN(c1sc2ccccc2c1Br)S(=O)(=O)c1ccccc1 [Compound 234, N-(3-Bromo-benzo[b]thiophen-2-yl)-N-(2-tert-butoxy-ethyl)-benzenesulfonamide]
IC50: 10 nM
inhibition at 0.5 µM: 93%

O=S(=O)(c1ccccc1)N(C[C@@H](O)CO)c1sc2ccccc2c1Br [Compound 235, (R)—N-(3-Bromo-benzo[b]thiophen-2-yl)-N-(2,3-dihydroxy-propyl)-benzenesulfonamide]
inhibition at 0.5 µM: 51%

O=C1CCCN1CCN(c1sc2ccccc2c1Br)S(=O)(=O)c1ccccc1 [Compound 236, N-(3-Bromo-benzo[b]thiophen-2-yl)-N-[2-(2-oxo-pyrrolidin-1-yl)-ethyl]-benzenesulfonamide]
inhibition at 0.5 µM: 68%

O=S(=O)(c1ccccc1)N(CCN1CCOCC1)c1sc2ccccc2c1Br [Compound 237, N-(3-Bromo-benzo[b]thiophen-2-yl)-N-(2-morpholin-4-yl-ethyl)-benzenesulfonamide]
IC50: 24.8 nM
inhibition at 0.2 µM: 87%
inhibition at 0.5 µM: 92%

CN(C)CCN(c1sc2ccccc2c1Br)S(=O)(=O)c1ccccc1 [Compound 238, N-(3-Bromo-benzo[b]thiophen-2-yl)-N-(2-dimethylamino-ethyl)-benzenesulfonamide]
IC50: 93 nM
inhibition at 0.5 µM: 96%

CS(=O)(=O)CCN(c1sc2ccccc2c1Br)S(=O)(=O)c1ccccc1 [Compound 239, N-(3-Bromo-benzo[b]thiophen-2-yl)-N-(2-methanesulfonyl-ethyl)-benzenesulfonamide]
IC50: 92 nM
inhibition at 0.5 µM: 96%

O=C1NCCN1CCN(c1sc2ccccc2c1Br)S(=O)(=O)c1ccccc1 [Compound 240, N-(3-Bromo-benzo[b]thiophen-2-yl)-N-[2-(2-oxo-imidazolidin-1-yl)-ethyl]-benzenesulfonamide]
inhibition at 0.5 µM: 43%

CN1CCC[C@H]1CN(c1sc2ccccc2c1Br)S(=O)(=O)c1ccccc1 [Compound 241, (S)—N-(3-Bromo-benzo[b]thiophen-2-yl)-N-(1-methyl-pyrrolidin-2-ylmethyl)-benzenesulfonamide]
IC50: 106 nM
inhibition at 0.5 µM: 97%

O=S(=O)(c1ccccc1)N(CC(F)F)c1sc2ccccc2c1Br [Compound 242, N-(3-Bromo-benzo[b]thiophen-2-yl)-N-(2,2-difluoro-ethyl)-benzenesulfonamide]
IC50: 38.2 nM
inhibition at 0.2 µM: 95%

COC(=O)CN(c1sc2ccccc2c1Br)S(=O)(=O)c1ccccc1 [Compound 243, N-(3-Bromo-benzo[b]thiophen-2-yl)-N-(carbomethoxymethyl)-benzenesulfonamide]
IC50: 38 nM
inhibition at 0.2 µM: 98%

COC(=O)[C@@H](C)CN(c1sc2ccccc2c1Br)S(=O)(=O)c1ccccc1 [Compound 244, N-(3-Bromo-benzo[b]thiophen-2-yl)-N-[2(S)-methyl-2-carbomethoxy-ethyl]-benzenesulfonamide]
inhibition at 0.2 µM: 100%

COC(=O)[C@H](C)CN(c1sc2ccccc2c1Br)S(=O)(=O)c1ccccc1 [Compound 245, N-(3-Bromo-benzo[b]thiophen-2-yl)-N-[2(R)-methyl-2-carbomethoxy-ethyl]-benzenesulfonamide]
inhibition at 0.2 µM: 102%

O=S(=O)(c1ccccc1)N(CCCc1ccccc1)c1sc2ccccc2c1Br [Compound 246, N-(3-Bromo-benzo[b]thiophen-2-yl)-N-(3-phenyl-propyl)-benzenesulfonamide]
IC50: 8.8 nM
inhibition at 0.2 µM: 102%

CCN(c1sc2ccccc2c1Br)S(=O)(=O)c1ccccc1 [Compound 247, N-(3-Bromo-benzo[b]thiophen-2-yl)-N-(ethyl)-benzenesulfonamide]
IC50: 25.5 nM
inhibition at 0.2 µM: 99%

CCCCCCN(c1sc2ccccc2c1Br)S(=O)(=O)c1ccccc1 [Compound 248, N-(3-Bromo-benzo[b]thiophen-2-yl)-N-(hexyl)-benzenesulfonamide]
IC50: 8.3 nM
inhibition at 0.2 µM: 98%
